The source of these data is BindingDB's records for patent US20240025884 (Dong-A St Co., 2024).

The experiment addresses eIF-2-alpha kinase GCN2 (Homo sapiens, UniProt Q9P2K8). The experiment in a line: Biochemical Assay. On the procedure: 384-well (Greiner #784075) (or 1536-well [Greiner #782075]) plates containing 60 nl (or 20 nl for 1536-well) of compound in 100% DMSO (10 concentrations serially diluted 3.16-fold) were prepared. Two copies of plates were used one for the GCN2 assay and a second for an artifact plate. Working reagents were prepared as follows reaction buffer: Tris pH 7.5 20 mM, MgCl2 5 mM, DTT 1 mM, Brij-35 0.005%, EGTA 0.5 mM in water; 2 enzyme solution: GCN2 (produced in-house) 1.6 nM in reaction buffer; 2 substrate solution: GFP-eIFS1 (Thermo Fisher Scientific, PV4809) 50 nM, ATP 0.2 mM, tRNA 0.4 mg/ml in reaction buffer; p-GFP-eIF2S1 (artifact) solution: p-GFP-eIFS1 (produced by incubation of 100 nM GFP-eIF2S1 in reaction buffer with 100 uM ATP and 1 nM PERK KD enzyme for 3 hr at room temperature) 2 nM in reaction buffer; 3 stop/antibody solution: p-GFP-EIF2S1 Th-Ab (Thermo Fisher Scientific, PV4816) 6 nM, AZ13933939 3 uM, BSA 3% in reaction buffer. Reagents were loaded onto a liquid dispenser (Certus FLEX, Trajan Scientific and Medical), and 3 ul (1 ul for 1536-well) of 2 enzyme solution, followed by 3 ul (1 ul for 1536-well) of 2 substrate solution was added to the plates. When small numbers of plates were processed, the enzyme solution was added first to all plates, then the valve used for the substrate solution was primed immediately prior to use. […]

Sequence of eIF-2-alpha kinase GCN2 (Q9P2K8 whole entry): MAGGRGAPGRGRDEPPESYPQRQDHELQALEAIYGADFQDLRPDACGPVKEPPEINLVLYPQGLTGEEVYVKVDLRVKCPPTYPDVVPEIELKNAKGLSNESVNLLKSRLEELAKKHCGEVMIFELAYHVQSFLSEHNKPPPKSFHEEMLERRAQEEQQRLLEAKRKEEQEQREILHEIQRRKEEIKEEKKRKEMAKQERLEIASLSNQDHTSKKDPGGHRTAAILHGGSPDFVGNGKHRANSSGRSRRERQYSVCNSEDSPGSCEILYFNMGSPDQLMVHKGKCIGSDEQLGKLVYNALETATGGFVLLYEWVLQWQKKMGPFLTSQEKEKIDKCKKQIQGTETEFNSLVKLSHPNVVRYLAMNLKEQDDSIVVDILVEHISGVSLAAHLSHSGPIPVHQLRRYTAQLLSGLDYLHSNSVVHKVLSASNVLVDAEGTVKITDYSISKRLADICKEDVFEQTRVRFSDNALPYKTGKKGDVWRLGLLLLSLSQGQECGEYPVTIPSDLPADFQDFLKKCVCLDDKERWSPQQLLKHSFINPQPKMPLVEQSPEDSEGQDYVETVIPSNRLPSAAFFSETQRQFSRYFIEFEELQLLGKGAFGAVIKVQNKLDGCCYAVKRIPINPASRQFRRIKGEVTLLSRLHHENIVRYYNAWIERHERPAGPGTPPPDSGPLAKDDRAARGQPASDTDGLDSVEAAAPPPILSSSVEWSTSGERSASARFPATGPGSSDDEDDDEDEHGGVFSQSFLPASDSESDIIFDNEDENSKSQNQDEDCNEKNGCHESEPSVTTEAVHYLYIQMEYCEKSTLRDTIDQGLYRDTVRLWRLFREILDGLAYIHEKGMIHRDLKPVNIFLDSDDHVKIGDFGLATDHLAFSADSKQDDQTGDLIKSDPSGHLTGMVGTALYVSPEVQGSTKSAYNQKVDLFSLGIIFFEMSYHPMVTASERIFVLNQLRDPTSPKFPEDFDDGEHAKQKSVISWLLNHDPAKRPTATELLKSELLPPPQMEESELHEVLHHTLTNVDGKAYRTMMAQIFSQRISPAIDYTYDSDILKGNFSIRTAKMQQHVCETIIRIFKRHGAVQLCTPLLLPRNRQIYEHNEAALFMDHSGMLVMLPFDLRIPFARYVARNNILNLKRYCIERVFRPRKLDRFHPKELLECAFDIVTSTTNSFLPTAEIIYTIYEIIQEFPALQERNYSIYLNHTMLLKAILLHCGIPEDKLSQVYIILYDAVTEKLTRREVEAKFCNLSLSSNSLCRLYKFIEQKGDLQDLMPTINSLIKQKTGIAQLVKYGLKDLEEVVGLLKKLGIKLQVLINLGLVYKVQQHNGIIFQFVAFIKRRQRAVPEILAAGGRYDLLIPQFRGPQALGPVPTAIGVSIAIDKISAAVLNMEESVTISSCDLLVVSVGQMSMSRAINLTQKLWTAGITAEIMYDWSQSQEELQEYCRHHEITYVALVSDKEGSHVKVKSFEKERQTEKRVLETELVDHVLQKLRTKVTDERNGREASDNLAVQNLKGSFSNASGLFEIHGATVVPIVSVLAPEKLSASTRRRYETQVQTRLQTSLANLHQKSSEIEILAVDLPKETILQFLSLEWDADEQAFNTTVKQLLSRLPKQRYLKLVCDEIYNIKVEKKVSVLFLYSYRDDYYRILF

`Cc1cc(Nc2ncc(Cl)c(-c3c[nH]c4c(NC(=O)CN5CC[C@H](Oc6ccnc(NC7CC7)n6)C5)cccc34)n2)nn1C` [US20240025884, Example 10]: the IC50 was less than 10 nM.

`Cc1cnc(Nc2cc(C)n(C)n2)nc1-c1c[nH]c2c(N3Cc4c(/C=C/C(=O)NC(C)C)cccc4C3=O)cccc12` [US20240025884, Example 370]: the IC50 was less than 10 nM.

A word on the IC50: it is the concentration at which inhibition is half-maximal. Higher therefore signals a need for much substance.
